Consider two compounds from US10231996B2, “Biocampatible polymer coated silver Prussian blue nanoparticles (SPB-NPs: Ag3[Fe(CN) 6])” (COUNCIL OF SCIENTIFIC & INDUSTRIAL RESEARCH, priority 2015, dated 2019).

The subject of data set [1] is E. coli. Kind of data set: Colony forming units (CFU), E. coli. The class given is cell-based. Particulars: positive control 2 mg/ml, 24 hours. The procedure:
(§1) Streptomycin at 2 mg/ml concentration was used as positive control. The plated were incubated for 24 hours at 37° C. The number of colonies appeared on the surface of the LB agar plates were counted. […] We previously reported the antibacterial activity of biosynthesized silver nanoparticles (Mukherjee et al. Theranostics, 2014; 4: 316-335).

For data set [2], the system named is E. coli. Briefly: Measurement of lipid peroxidation. The class given is cell-based. Particulars: positive control; (sample O.D/Control O.D)×100. The procedure:
Lipid peroxidation was measured according to standard protocol. […] 1.5 ml of 20% acetic acid (pH 3.5), 1.5 ml of 0.8% thiobarbituric acid (in 1.1% SDS) and 0.05 ml of 20% TCA were added and mixed thoroughly. The tubes were then incubated for 60 minutes at 100° C. and 5 ml of butanol was added to each tube. The tubes were then centrifuged at 4000 rpm for 15 minutes. The pink supernatant was measures at 532 nm. The % of lipid peroxidation was measured by using the following formula: % of lipid peroxidation=(sample O.D/Control O.D)×100.

The next data set deals with Bacillus subtilis. Briefly: Colony forming units (CFU), Bacillus subtilis. Particulars: positive control 2 mg/ml, 24 hours. The class given is cell-based. The procedure: as §1
In data set [3] the test system is B16F10 aggressive murine melanoma tumor. Briefly: In vivo B16F10 melanoma tumor model in C57BL6/J mice. Particulars: free Dox 2.5 mg/kg, after four IP injections, compared to SPB(1,1)NPs treated mice. The procedure:
In vivo tumor model was carried out using male C57BL6/J mice (8-9 weeks old). Approximately, 2.5×10^5 B16F10 cells resuspended in 100 μL of sterile HBSS were subcutaneously injected to lower right abdomen of male mice. […] All the treatments were Intraperitoneally (IP) injected on alternate days over a period of 15 days. The volume of tumor was measured by using the formula (0.5×ab^2), where ‘a’ represents the longest dimension and ‘b’ represents the shortest dimension of the tumors. Also, the weight and picture of the tumors were taken after the sacrifice. […] The loss of body weight can correlate with the nonspecific side effects of Dox in normal physiological function.

Structures are written as SMILES.

On to `[H]/N=C(/N)N[C@H]1[C@H](O)[C@@H](O)[C@H](O[C@@H]2O[C@@H](C)[C@](O)(C=O)[C@H]2O[C@@H]2O[C@@H](CO)[C@H](O)[C@@H](O)[C@@H]2NC)[C@@H](N/C(N)=N\[H])[C@@H]1O` [streptomycin], for which the “bacterial growth (colonies)” value with E. coli [1] and with Bacillus subtilis was “bacterial colonies were observed” throughout. Also, in the data set on E. coli [2], the lipid peroxidation turned out to be 60%.
`COc1cccc2c1C(=O)c1c(O)c3c(c(O)c1C2=O)C[C@@](O)(C(=O)CO)C[C@@H]3O[C@H]1C[C@H](N)[C@H](O)[C@H](C)O1` [Dox, doxorubicin]: the body weight result in data set [3] is “significant loss of bodyweight”.
